These results are taken from patent publication US10377717B2, “Farnesoid X receptor agonists and uses thereof” (Metacrine, Inc., priority 2015, dated 2019).

The structures appear in SMILES notation. Some results are limits rather than exact numbers.

Usually EC50 stands for the concentration needed to bring the measured effect to its halfway point.

In the assay the target is hFXR (Homo sapiens (Human), UniProt Q96RI1). In words: In Vitro FXR Assay (TK), luciferase reporter in transfected CV-1 cells. It counts as cell-based. The following applies: TK-ECRE-luc reporter, hFXR/hRXR, 18 hrs, maximum efficacy <25% of Fexaramine control classified as '+'. As to the method: CV-1 cells were seeded at a density of 2,000,000 cells in a T175 flask with DMEM+10% charcoal double-stripped FBS and incubated at 37° C. in 5% CO2 for 18 h (O/N).
hFXR, sequence (Q96RI1 whole entry): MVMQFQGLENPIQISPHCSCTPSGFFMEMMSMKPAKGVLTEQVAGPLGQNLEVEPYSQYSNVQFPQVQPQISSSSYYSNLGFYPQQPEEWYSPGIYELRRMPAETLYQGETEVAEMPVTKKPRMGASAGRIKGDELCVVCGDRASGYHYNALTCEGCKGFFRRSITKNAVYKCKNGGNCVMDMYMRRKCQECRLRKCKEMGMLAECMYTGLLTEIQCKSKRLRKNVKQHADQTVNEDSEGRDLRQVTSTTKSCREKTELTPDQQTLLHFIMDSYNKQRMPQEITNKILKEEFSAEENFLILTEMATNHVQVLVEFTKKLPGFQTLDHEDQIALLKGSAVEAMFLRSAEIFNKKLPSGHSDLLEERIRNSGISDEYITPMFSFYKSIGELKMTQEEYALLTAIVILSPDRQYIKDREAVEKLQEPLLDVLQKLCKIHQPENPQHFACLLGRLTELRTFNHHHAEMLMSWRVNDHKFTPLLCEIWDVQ
hFXR, sequence (P19793 whole entry partner): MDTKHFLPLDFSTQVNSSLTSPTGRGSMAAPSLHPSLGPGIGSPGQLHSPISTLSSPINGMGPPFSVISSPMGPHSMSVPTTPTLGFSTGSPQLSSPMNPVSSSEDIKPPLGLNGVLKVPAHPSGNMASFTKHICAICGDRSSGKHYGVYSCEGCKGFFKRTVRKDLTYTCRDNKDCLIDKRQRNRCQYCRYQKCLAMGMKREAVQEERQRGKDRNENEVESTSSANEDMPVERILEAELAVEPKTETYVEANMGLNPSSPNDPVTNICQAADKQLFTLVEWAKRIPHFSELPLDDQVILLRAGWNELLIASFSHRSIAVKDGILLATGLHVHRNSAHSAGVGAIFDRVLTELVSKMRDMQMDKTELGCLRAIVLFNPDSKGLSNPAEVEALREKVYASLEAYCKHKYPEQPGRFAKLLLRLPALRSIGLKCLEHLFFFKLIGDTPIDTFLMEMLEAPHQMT
After 18 h of incubation, the medium in the T175 flask was changed with fresh DMEM+10% charcoal super-stripped serum. In a polypropylene tube, 2500 μL OptiMEM (Life Technologies, Cat #31985-062) was combined with expression plasmids for hFXR, hRXR, TK-ECRE-luc and pCMX-YFP. The tube was then briefly vortexed and incubated at room temperature for 5 minutes. Transfection reagent (X-tremeGENE HP from Roche, Cat #06 366 236 001) was added to the OptiMEM/plasmid mixture vortexed and incubated at room temperature for 20 minutes. Following incubation, the transfection reagent/DNA mixture complex was added to cells in the T175 flask and the cells were incubated at 37° C. in 5% CO2 for 18 h (O/N).
Compounds were serially diluted in DMSO and added to transfected CV-1 cells. The cells were then incubated for 18 hrs. The next day cells were lysed and examined for luminescence.
A general note: In a reporter assay the amount or activity of a reporter protein is the signal.
As for `COC(=O)c1ccc2c(N(C[C@H]3CC[C@H](c4ccc(Cl)cc4)CC3)C(=O)CC(C)(C)C)nccc2c1` [Compound 95, Methyl 1-(N-((trans-4-(4-chlorophenyl)cyclohexyl)methyl)-3,3-dimethylbutanamido)isoquinoline-6-carboxylate], the EC50 lay in the range of 1000 to 10000 nM. `COc1ccc(-c2ccc(CN(C(=O)CC(C)(C)C)c3nccc4cc(CCC(=O)O)ccc34)cc2)cc1C` [Compound 104, 3-(1-(N-((4′-Methoxy-3′-methyl-[1,1′-biphenyl]-4-yl)methyl)-3,3-dimethylbutanamido)isoquinolin-6-yl)propanoic Acid] displayed a 50% effective concentration (EC50) of 1000 to 10000 nM. With `COC(=O)c1ccc2c(N(Cc3ccc(-c4ccc(OC)c(C)c4)cc3)C(=O)CCCOCc3ccccc3)nccc2c1` [Compound 78, Methyl 1-(4-(benzyloxy)-N-((4′-methoxy-3′-methyl-[1,1′-biphenyl]-4-yl)methyl)butanamido)isoquinoline-6-carboxylate] the figure was at least 10000 nM; with `COC(=O)c1ccc2c(N(Cc3ccc(-c4ccc(C#N)c(Cl)c4)cc3)C(=O)CC(C)(C)C)nccc2c1` [Compound 31, Methyl 1-(N-((3′-chloro-4′-cyano-[1,1′-biphenyl]-4-yl)methyl)-3,3-dimethylbutanamido)isoquinoline-6-carboxylate], at most 1000 nM. With `COC(=O)c1ccc2c(N(C[C@H]3CC[C@H](c4ccccc4C)CC3)C(=O)CC(C)(C)C)nccc2c1` [Compound 89, Methyl 1-(3,3-dimethyl-N-((trans-4-(o-tolyl)cyclohexyl)methyl)butanamido)isoquinoline-6-carboxylate] the figure was 1000 to 10000 nM.

Regarding `COC(=O)c1ccc2c(N(Cc3ccc(-c4ccc5sc(C)nc5c4)cc3)C(=O)CC(C)(C)C)nccc2c1` [Compound 50, Methyl 1-(3,3-dimethyl-N-(4-(2-methylbenzo[d]thiazol-5-yl)benzyl)butanamido)isoquinoline-6-carboxylate], the EC50 was in the range of 1000 to 10000 nM. Take `COC(=O)c1ccc2c(N(Cc3ccc(-c4ccc(C(F)F)cc4)cc3)C(=O)CC(C)(C)C)nccc2c1` [Compound 56, Methyl 1-(N-((4′-(difluoromethyl)-[1,1′-biphenyl]-4-yl)methyl)-3,3-dimethylbutanamido)isoquinoline-6-carboxylate]: the 50% effective concentration (EC50) was at most 1000 nM. `COC(=O)c1ccc2c(N(Cc3ccc(-c4ccc(N(C)C)cc4)cc3)C(=O)C(C)(C)C)nccc2c1` [Compound 17, Methyl 1-(N-((4-(dimethylamino)-[1,1′-biphenyl]-4-yl)methyl)pivalamido)isoquinoline-6-carboxylate] displayed an EC50 of 1000 to 10000 nM. With `COC(=O)c1cc2cccc(N(Cc3ccc(-c4ccc(N(C)C)cc4)cc3)C(=O)C3CCCCC3)c2s1` [Compound 12, Methyl 7-(N-((4′-(dimethylamino)-[1,1′-biphenyl]-4-yl)methyl)cyclohexanecarboxamido) benzo[b]thiophene-2-carboxylate] the figure was 1000 to 10000 nM; with `COC(=O)c1ccc2c(N(Cc3ccc(-c4cnc(OC)c(C)c4)cc3)C(=O)CC(C)(C)C)nccc2c1` [Compound 37, Methyl 1-(N-(4-(6-methoxy-5-methylpyridin-3-yl)benzyl)-3,3-dimethylbutanamido)isoquinoline-6-carboxylate], at most 1000 nM; with `CCOc1ccc(-c2ccc(CN(C(=O)CC(C)(C)C)c3nccc4cc(C(=O)OC)ccc34)cc2)cc1` [Compound 52, Methyl 1-(N-((4′-ethoxy-[1,1′-biphenyl]-4-yl)methyl)-3,3-dimethylbutanamido)isoquinoline-6-carboxylate], 1000 to 10000 nM.

In turn, `COC(=O)c1ccc2c(N(Cc3ccc(-c4ccc(CCO)cc4)cc3)C(=O)CC(C)(C)C)nccc2c1` [Compound 61, Methyl 1-(N-((4′-(2-hydroxyethyl)-[1,1′-biphenyl]-4-yl)methyl)-3,3-dimethylbutanamido)isoquinoline-6-carboxylate] came in with an EC50 of at most 1000 nM.
